Assay results taken from US6787564B2, “Optically active clausenamides, process of the preparation thereof, pharmaceutical composition containing the same and their medical use” (Institute of Materia Medica, Chinese Academy of Medical …, priority 2002, dated 2004).

What was measured:
calpain = calpain activity in the cortical and hippocampal tissue; format: in vivo, rats; conditions: without HFS, Nimodipine 2 nmol, mean ± S.D., n = 5
Description: The rats were anaesthetized with urethane carbonate.

[1] = test system: β-AP (25-35)-treated rats; experiment: one trial passive avoidance of β-AP (25-35)-treated rats; format: in vivo; conditions: n = 9
[2] = test system: Bax α high expressing PC12 cells; experiment: 6-OHDA induced apoptosis of Bax α high expressing PC12 cells (TUNEL, flowcytometry); format: cell-based; conditions: 6-OHDA 100 μM, without drug 49.9%
Description: 1. The Construction of pcDNA3-bax α Plasmid and its Transfection into the PC12 Cell Line
In order to increase the expression level of the transfected gene, we first cut some of the 3′ polyA signal sequences from the Bax α cDNA and constructed the intermediate plasmid pBluescript SK-Bax α (pA). Then cut the Bax α cDNA from the intermediate plasmid, religate with the eukaryotic expression plasmid pcDNA3 and obtained the pcDNA3-Bax α recombinant plasmid. […] The recombinated Bax α has −50 bp of 5′ untranslated region(5′-UTR), 576 bp of open reading frame (ORF), and 137 bp of 3′ untranslated region (3′-UTR). The 5′ methionine translation initiation region has the Kozak consensus sequences. So this plasmid may be used to transform the Bax α gene into the mammalian cells and guarantees highly expression of Bax α by using its strong promoter.
The Lipofectamine transfecting method was used to transfect the pcDNA3-Bax α into the PC12 cell line. G-418 was used to select the resistant cell clones. […] This experiment successfully produced the Bax α high expressing PC12 cell line.
Under normal condition, the Bax α high expressing cells had the same natural apoptosis rate with the neo transfected PC12 cells.

[3] = test system: Bax α high expressing PC12 cells; experiment: mitochondrial GSH and MDA level in 6-OHDA treated Bax α high expressing PC12 cells; format: cell-based; conditions: for mitochondrial GSH level: without drug 9.84±1.20; for mitochondrial MDA level: without drug 2.46±0.19
Description: It means that Bax α expression may promote the production of reactive oxygen species. The antiapoptotic effect of (−) clausenamide may be attributed to its reduction of the mitochondrial MDA level and the increase of mitochondrial GSH level. The increased mitochondrial GSH may be the result of the increased Bcl-2 level. As Bcl-2 itself is not an antioxidant, it may promote the closing of PT pores, and form heterodimers with Bax α and protect the mitochondria from injury and thus reduce the production of reactive oxygen, species.

[4] = test system: Bax α high expressing PC12 cells; experiment: mitochondrial membrane potential in 6-OHDA treated Bax α high expressing PC12 cells; format: cell-based; conditions: 6-OHDA 12 hours, without drug 24.6
Description: Obviously, the increased mitochondrial membrane potential is considered to be one of the antiapoptotic mechanisms of (−) Clausenamide. The increased mitochondrial complex I and complex IV activity may account for the increased mitochondrial membrane potential. The Bax α protein may induce apoptosis by affecting enzyme activities of the mitochondrial electron transfer chain. And the mitochondrial complex I and complex IV could be the targeting points of the Bax α protein.

[5] = test system: animals with anisodine-induced memory impairment; experiment: step-through test, memory impairment induced by anisodine; format: in vivo
Description: (§1) This invention used one trial avoidance task—step-down and step-through tests and water maze to compare the improving memorial effects of (±), (−) clausenamide. The drugs were given orally once to animals before experiment in step-down and step-through tests. The water maze test lasted for 5 days in succession. The results were expressed as latency and errors number.

animals [6] = experiment: memory in water maze test; format: in vivo; conditions: 10 mg/kg
Description: as §1

[7] = test system: animals with anisodine-induced memory impairment; experiment: memory impairment induced by anisodine in water maze test; format: in vivo; conditions: anisodine + drug 10 mg/kg
Description: as §1

[8] = test system: dentate gyrus granule cells; experiment: basal synaptic transmission / LTP in dentate gyrus of hippocampus in anesthetized rats (population spike amplitude); format: in vivo
Description: Drugs or vehicle injection were delivered via cannula in the lateral cerebral ventricle at final concentration of 2×10^−6 mol/L. The population spike (PS) amplitude was employed as an indication of the level of excitation of the granular cell population in the dentate gyrus. To obtain this measurement, an evoked response was generated in the dentate gyrus granule cell layer by stimulating the pp at low freguency (0.033 Hz) with. single square wave pulses of 0.15 ms duration The LTP formation must accord the following creteria: The PS amplitude increased is over 30% and this high PS amplitude can persist for 40 min.

animals [9] = experiment: nootropic action overall: step-down, step-through and water maze tests; format: in vivo; conditions: in vivo
Experimental: This invention used one trial avoidance task—step-down and step-through tests and water maze to compare the improving memorial effects of (±), (−) clausenamide.
The drugs were given orally once to animals before experiment in step-down and step-through tests. The water maze test lasted for 5 days in succession. The results were expressed as latency and errors number.
The effective dose of piracetam was 500 mg.kg^−1.

potassium channel = potassium channel blockade (nootropic mechanism)
Ach, ChAT = experiment: Ach content and ChAT activity in cortex, hippocampus and striatum; conditions: in vivo
calcineurin = calcineurin activity in the cortical and hippocampal tissue; conditions: without HFS; Nimodipine 2 nmol; mean ± S.D., n = 5; control 7.8 ± 0.6
Description: The rats were anaesthetized with urethane carbonate. The recording and stimulating electrodes were made from Teflon coated stainless steel wires. The bipolar stimulating electrode was sterotaxically placed in the entorhinal cortex to stimulate the perforant path, and the evoked potential was extracellular recorded from the dentate gyrus granule cell layer of ipsilateral. The population spike (PS) is served as an indication of granule cell's excitation. Long term potentiation (LTP) was induced by a 200 Hz high frequency stimulation 5×single square wave pulses of 0.2 ms duration. The drug or vehicle (DMSO) were injected into lateral cerebral ventricle in a 5 μl volume over a 5 min period via a Hamilton syringe.

[10] = anisodine + drug 10 mg/kg (Tab 7)
[11] = anisodine + drug 50 mg/kg (Tab 7)

SMILES: CN1C(=O)[C@@H](O)[C@H](c2ccccc2)[C@@H]1[C@@H](O)c1ccccc1 [(−)clausenamide, 3S, 4R, 5R, 6S (−) Levoclausenamide]
- calpain activity, Cortical tissue (calpain; control 1.5 ± 0.2): 2.6 ± 0.5 ΔA595nm/hr/mg protein
- calpain activity, Hippocampal tissue (calpain; control 1.7 ± 0.5): 2.7 ± 0.8 ΔA595nm/hr/mg protein
- Number of error, Acquisition ([1]; β-AP-treated + drug 8 mg/kg): 0.7 ± 0.24
- Number of error, Training ([1]; β-AP-treated + drug 8 mg/kg): 3.1 ± 1.22
- Number of error, Acquisition ([1]; β-AP-treated + drug 40 mg/kg): 1.1 ± 0.27
- Number of error, Training ([1]; β-AP-treated + drug 40 mg/kg): 4.4 ± 0.87
- apoptotic rate ([2]; 10^−5M): 9.5%
- apoptotic rate ([2]; 10^−6M): 28.1%
- apoptotic rate ([2]; 10^−7M): 36.23%
- mitochondrial GSH level ([3]; 10^−5M): 17.78±1.04 nmol/mg pro
- mitochondrial MDA level ([3]; 10^−6M): 1.54±0.13 nmol/mg pro
- mitochondrial GSH level ([3]; 10^−6M): 15.10±0.95 nmol/mg pro
- mitochondrial GSH level ([3]; 10^−7M, 6-OHDA treated): 12.29±0.99 nmol/mg pro
- mitochondrial MDA level ([3]; 10^−7M): 1.76±0.17 nmol/mg pro
- mitochondrial membrane potential ([4]; 10^−6M): 56.0±5.0
- mitochondrial membrane potential ([4]; 10^−7M): 30.7±3.3
- Latencies, Step-through ([5]; 5 mg/kg oral once): 47.9 ± 90 s
- Error number, Step-through ([5]; 5 mg/kg oral once, 0.9% Nacl + anisodine 12.7 ± 4.6): 5.7 ± 4.7
- Error number, Step-through ([5]; 10 mg/kg oral once (Table 4)): 6.5 ± 5.0
- Latencies, Step-through ([5]; 10 mg/kg oral once (Table 4)): 59.4 ± 91 s
- Error number, Step-through ([5]; 50 mg/kg oral once (Table 4)): 7.1 ± 3.6
- Latencies, Step-through ([5]; 50 mg/kg oral once (Table 4)): 17.1 ± 12.4 s
- Error number [5, 10]: 6.7 ± 11.0
- Latencies [5, 10]: 138.2 ± 86.7 s
- Error number [5, 11]: 5.4 ± 4.1
- Latencies [5, 11]: 140.6 ± 96.4 s
- Lalencies reaching platform, 3rd day (animals [6]): 17.4 ± 10.9 s
- Lalencies reaching platform, 4th day (animals [6]): 12.1 ± 6.9 s
- Lalencies reaching platform, Second day (animals [6]): 28.7 ± 35.2 s
- Errors number [7]: 9.4 ± 5.9
- increase of PS amplitude in comparison with vehicle group ([8]; 30-60 min after drug administration): 38.9-63.4%
- LTP formation (PS amplitude increase over 30% persisting 40 min) ([8]; (−) at 2×10^−6 mol/L, (±) up to 5 times that): induce LTP formation
- PS % at 15′, in comparison with before drug ([8]; icv, 2×10^−6 mol/L): 19.8%
- PS % at 15′, in comparison with control (vehicle) group ([8]; icv, 2×10^−6 mol/L): 10.0%
- PS % at 30′, in comparison with before drug ([8]; icv, 2×10^−6 mol/L): 48.5%
- PS % at 30′, in comparison with control (vehicle) group ([8]; icv, 2×10^−6 mol/L): 38.9%
- PS % at 45′, in comparison with before drug ([8]; icv, 2×10^−6 mol/L): 66.3%
- PS % at 45′, in comparison with control (vehicle) group ([8]; icv, 2×10^−6 mol/L): 52.7%
- PS % at 60′, in comparison with before drug ([8]; icv, 2×10^−6 mol/L): 81.2%
- PS % at 60′, in comparison with control (vehicle) group ([8]; icv, 2×10^−6 mol/L): 63.4%
- PS amplitude 30′ after drug ([8]; icv, 2×10^−6 mol/L, control 108 ± 7): 150 ± 11
- PS amplitude 45′ after drug ([8]; icv, 2×10^−6 mol/L, control 110 ± 10): 168 ± 25
- PS amplitude 60′ after drug ([8]; icv, 2×10^−6 mol/L, control 112 ± 7): 183 ± 30
- PS amplitude 15′ after drug ([8]; icv, final concentration 2×10^−6 mol/L, control 110 ± 9): 121 ± 9
- nootropic action, times more potent than (±) clausenamide (animals [9]): 5-10 times
- nootropic action, times more potent than piracetam (animals [9]): 50-100 times
- potassium channel action (potassium channel): potassium channel blocker
- Ach content in cortex, hippocampus and striatum (Ach, ChAT): increased
- ChAT activity in cortex, hippocampus and striatum (Ach, ChAT): increased
- calcineurin activity, Hippocampal tissue (calcineurin): 10.4 ± 0.5 (μmol Pi)/hr/μ g protein
